Entries after “also recorded” stand apart in the source; their conditions may differ.
Key:
[1] = system: serum cytokines/chemokines; assay: Chronic feeding of ketone supplements: serum inflammatory profile; format: in vivo, Sprague Dawley rats; set-up: key to MIP-1a, change from control / IL-4, change from control / IL-1b, change from control / IL-2, change from control / IL-10, change from control / IFNy, change from control / IL-5, change from control / IL-17a, change from control / IL-18, change from control / MCP-1, change from control / IP-10, change from control / GRO/KC, change from control / VEGF, change from control / LIX, change from control / MIP-2, change from control / TNF-a, change from control / RANTES, change from control / G-CSF, change from control / GM-CSF, change from control / IL-1a, change from control / Leptin, change from control: ↑: Increased from control; ↓: Decreased from control; —: no change; T: Trend towards significance; *p < 0.05; **p < 0.01; ***p < 0.001; settings: rat serum, 15 weeks
Source text: (§1) Male Sprague Dawley rats (N=10/group) were fed ad libitum (approximate dose based on food intake recorded during study) for the study duration (15 weeks).
(§2) Measured Parameters: • Weight • Food/calorie intake • Blood glucose • Blood ketones • Triglycerides • Total Cholesterol • HDL • LDL • Safety/toxicity—serum clinical chemistry tests for kidney and liver function Inflammatory Profile: […]

[2] = system: kidney and liver function; assay: Chronic feeding of ketone supplements: serum clinical chemistry for kidney and liver function; format: in vivo, Sprague Dawley rats; set-up: key: ns = no change from control; settings: rat serum, 15 weeks, vs SD-fed control
Source text: as §1, §2

[3] = Chronic feeding of ketone supplements: weight and caloric intake; format: in vivo, Sprague Dawley rats; settings: for Approximate caloric intake compared to controls: rats, following adaptation to diet (weeks 13-15)
Source text: as §1, §2

[4] = Blood glucose and ketone levels in AS mice; format: in vivo; settings: for blood ketones: AS mice on KE diet vs WT and AS controls; for blood glucose: AS mice on KE diet vs WT and AS mice on control diet
Protocol: (§3) Ketone ester administration. Control mice received standard rodent chow fed ad libitum. Mice receiving the ketone supplement were administered BD-AcAc2 with their standard rodent chow ad libitum.
Blood glucose and ketone levels. Blood was collected from the tip of the tail weekly using the Precision Xtra system with both glucose and ketone test strips, each requiring 0.6 μL samples.
(§4) The inventors hypothesized that supplemental ketone administration would decrease seizure frequency, increase seizure threshold, and improve hippocampal-dependent cognition and motor learning deficiencies.

Ube3a-deficient mice [5] = assay: Rotarod testing; format: in vivo; settings: AS mice, treated vs AS littermate controls
Protocol: (§5) Mice. Mice with the UBE3A null mutation (AS) were described previously (Jiang Y H et al., Neuron, 1998, 21(4):799-811). All experiments were performed on mice that have been backcrossed to the C57BL/6 line (Jackson Labs, Bar Harbor, Me.) for at least 5 generations. Female C57BL/6 mice containing the null mutation were bred with C57BL/6 (WT) males to produce maternally-deficient AS offspring and WT littermate controls. Audiogenic seizure experiments were performed on mice with the 129/SvEv background, with the same breeding scheme as the C57BL/6 mice. Animals were kept on a 12 hour light-dark cycle and food and water provided ad libitum. All animal testing procedures were approved by the Institutional Animal Care and Use Committee of the University of South Florida and followed the NIH guidelines for the care and use of laboratory animals.
as §3
Rotarod testing. Mice were placed on a rotating rod (Rotarod, Ugo Basile, Italy) that accelerated from 4 to 40 rpm. For two consecutive days, four trials were performed per day with a 45-60 min interval between trials. The maximum duration of each trial was 5 minutes. The time that the mice fell off the rod was recorded. […]

[6] = Group weights of AS mice on ketone ester diet; format: in vivo; settings: 10% BD-AcAc2 in chow ad libitum, 8 weeks, vs AS controls
Protocol: as §5, §3, §4

Ube3a-deficient mice [7] = assay: Associative fear conditioning; format: in vivo; settings: AS mice
Protocol: as §5, §3
Associative fear conditioning. Fear conditioning was used to assess hippocampal function and associative learning and memory. Training included 2 shock-tone (CS/US) pairings. Detailed methods have been previously described (Trotter, J. et al., The Journal of Neuroscience, 2013, 33(39):[…]). […]

Ube3a-deficient mice [8] = assay: Kainic acid-induced seizures; format: in vivo; settings: kainic acid 20 mg/kg i.p.; 10 and 45 minutes post-administration; AS treated vs AS control
Protocol: as §5, §3
Kainic acid injections. Mice were injected with 20 mg/kg of kainic acid i.p. and were monitored for seizure activity for 45 minutes and behavioral seizure score was recorded (modified Racine's scale).

Ube3a-deficient mice [9] = assay: Induced audiogenic seizures; format: in vivo; settings: for latency to seize: AS treated vs AS control mice, audiogenic seizures
Protocol: as §5, §3
Induced audiogenic seizures. Seizures were induced by exposing mice to a 120-dB white noise in a sound-attenuated chamber until seizures occurred or for a maximum of 60 s. Both seizure frequency and threshold (time until seizures began) were recorded.

Ube3a-deficient mice [10] = assay: Novel object recognition; format: in vivo; settings: AS mice, 24 hours following training
Protocol: as §5, §3
Novel Object Recognition. Novel object recognition was used to evaluate recognition memory. Following habituation to an open field arena, mice were allowed to explore the arena containing two identical objects for 15 minutes. 24 hours following training, a novel object replaced one of the old objects and mice were allowed to explore for 5 minutes.

[11] = listed as ketone ester supplement

CC(=O)CC(=O)OCCC(C)OC(=O)CC(C)=O (racemic) [HKE]
Eotaxin, change from control [1]: ↓** | Fractalkine, change from control [1]: ↑* | G-CSF, change from control [1]: ↓T | GM-CSF, change from control [1]: — | GRO/KC, change from control [1]: ↓T | IFNy, change from control [1]: ↓* | IL-1a, change from control [1]: ↓* | IL-1b, change from control [1]: ↓* | IL-2, change from control [1]: ↓T | IL-4, change from control [1]: — | IL-5, change from control [1]: ↓* | IL-6, change from control [1]: ↓* | IL-10, change from control [1]: ↓T | IL-12(p70), change from control [1]: ↓* | IL-13, change from control [1]: ↓** | IL-17a, change from control [1]: — | IL-18, change from control [1]: ↓T | IP-10, change from control [1]: ↓*** | LIX, change from control [1]: ↓* | Leptin, change from control [1]: ↓* | MCP-1, change from control [1]: ↓T | MIP-1a, change from control [1]: — | MIP-2, change from control [1]: — | RANTES, change from control [1]: ↓** | TNF-a, change from control [1]: — | VEGF, change from control [1]: — | Alanine Aminotransferase (ALT) [2]: Ns | Albumin [2]: Ns | Alkaline Phosphatase (ALP) [2]: Ns | Blood Urea Nitrogen (BUN) [2]: Ns | Calcium [2]: Ns | Chloride [2]: Ns | Cholesterol [2]: Ns | Creatinine [2]: Ns | Gamma Glutamyltransferase (GGT) [2]: Ns | Globulin [2]: Ns | Glucose [2]: Ns | Phosphorous [2]: Ns | Potassium [2]: Ns | Sodium [2]: Ns | Total Bilirubin [2]: Ns | Total Protein [2]: Ns | Approximate caloric intake compared to controls [3]: ~−7 % kcal

CC(=O)CC(=O)OCCC(C)OC(=O)CC(C)=O (stereo not drawn) [BD-AcAc2, R,S-1,3-butanediol acetoacetate diester]
blood ketones ([4]; listed as KE): elevated ketones | blood ketones [4, 11]: increases blood ketone levels | blood glucose ([4]; listed as KE): decreased blood glucose | blood glucose [4, 11]: decreases blood glucose | rotarod performance (Ube3a-deficient mice [5]): increases rotarod performance | food consumption / caloric intake ([3]; male Sprague Dawley rats, fed ad libitum 15 weeks): adjusted food consumption to regulate caloric intake to a large extent | body weight / weight gain [6]: normalizes body weight | body weight / weight gain [6, 11]: normalizes weight | contextual fear conditioning (hippocampal-dependent learning) (Ube3a-deficient mice [7]; 24 hours after training): improves hippocampal-dependent learning | fear conditioning training phase (freezing) (Ube3a-deficient mice [7]; training phase): does not affect the fear conditioning training phase | behavioral seizure score (modified Racine's scale) (Ube3a-deficient mice [8]): significant decrease in behavioral seizure score | audiogenic seizure activity (Ube3a-deficient mice [9]; AS mice after 8 weeks on the diet, listed as ketone ester): decreased; also recorded: decreases seizure activity | audiogenic seizure frequency (Ube3a-deficient mice [9]; AS treated group after 8 weeks on the diet, 120-dB white noise): 86% | latency to seize (Ube3a-deficient mice [9]): increases latency to seize | latency to seize (Ube3a-deficient mice [9]; listed as ketone ester): increased | novel object recognition memory (Ube3a-deficient mice [10]): enhances novel object recognition memory

CC(=O)CC(=O)OCCC(C)OC(=O)CC(C)=O (racemic) [LKE]
Eotaxin, change from control [1]: ↓T | Fractalkine, change from control [1]: ↑** | G-CSF, change from control [1]: — | GM-CSF, change from control [1]: — | GRO/KC, change from control [1]: — | IFNy, change from control [1]: — | IL-1a, change from control [1]: — | IL-1b, change from control [1]: — | IL-2, change from control [1]: — | IL-4, change from control [1]: — | IL-5, change from control [1]: — | IL-6, change from control [1]: ↓T | IL-10, change from control [1]: — | IL-12(p70), change from control [1]: ↓* | IL-13, change from control [1]: ↓T | IL-17a, change from control [1]: — | IL-18, change from control [1]: — | IP-10, change from control [1]: — | LIX, change from control [1]: — | Leptin, change from control [1]: — | MCP-1, change from control [1]: — | MIP-1a, change from control [1]: ↑T | MIP-2, change from control [1]: — | RANTES, change from control [1]: — | TNF-a, change from control [1]: — | VEGF, change from control [1]: ↑* | Alanine Aminotransferase (ALT) [2]: ns | Albumin [2]: ns | Alkaline Phosphatase (ALP) [2]: ns | Blood Urea Nitrogen (BUN) [2]: ns | Calcium [2]: ns | Chloride [2]: ns | Cholesterol [2]: ns | Creatinine [2]: ns | Gamma Glutamyltransferase (GGT) [2]: ns | Globulin [2]: ns | Glucose [2]: ns | Phosphorous [2]: ns | Potassium [2]: ns | Sodium [2]: ns | Total Bilirubin [2]: ns | Total Protein [2]: ns | Approximate caloric intake compared to controls [3]: ~+10 % kcal

— patent US9795580B2, “Ketone supplements for treatment of angelman syndrome” (priority 2015, dated 2017)
